Experimental data: patent US20070128217A1 (priority 2003, published 2007)

Experiments:
[1] = tested on: rabbit serum obtained by immunizing a rabbit with the SARS-CoV strain Frankfurt 1; assay type: binding; design: Binding of a rabbit serum to linear peptides / Binding of a rabbit serum to looped peptides / Rabbit serum linear peptides / Rabbit serum looped peptides / Binding of a rabbit serum to linear peptides of protein N of SARS-CoV Urbani (Rabbit serum linear peptides) / Binding of a rabbit serum to looped/cyclic peptides of protein N of SARS-CoV Urbani (Rabbit serum looped peptides): unit not given here
[2] = tested on: antibodies in sera from SARS patients (sera 1a, 1b, 2, 6, 37, 62, London, SARS-yellow, SARS-green); assay type: binding, human; design: Binding of serum 6 to linear peptides of protein X1 of SARS-CoV Urbani / Binding of serum 37 to linear peptides of protein X1 of SARS-CoV Urbani / Binding of serum 6 to looped/cyclic peptide (PEPSCAN-ELISA) / Binding of serum 37 to looped/cyclic peptide (PEPSCAN-ELISA) / Binding of serum 37 to looped/cyclic peptides of protein X1 of SARS-CoV Urbani / Binding of serum 6 to linear peptides of protein X2 / Binding of serum 37 to linear peptides of protein X2 / Binding of serum 37 to looped/cyclic peptides of protein X2 of SARS-CoV Urbani / Binding of serum 6 to linear peptides of protein M of SARS-CoV Urbani / Binding of serum 37 to linear peptides of protein M of SARS-CoV Urbani / Binding of serum 6 to looped/cyclic peptides of protein M of SARS-CoV Urbani / Binding of serum 37 to looped/cyclic peptides of protein M of SARS-CoV Urbani / Binding of serum 6 to linear peptides of protein X3 of SARS-CoV Urbani / Binding of serum 37 to linear peptides of protein X3 of SARS-CoV Urbani / Binding of serum 37 to looped/cyclic peptides of protein X3 of SARS-CoV Urbani / Binding of serum 6 to linear peptides of protein X4 of SARS-CoV Urbani / Binding of serum 37 to linear peptides of protein X4 of SARS-CoV Urbani / Binding of serum 37 to looped/cyclic peptides of protein X4 of SARS-CoV Urbani / Binding of serum 6 to linear peptides of protein X5 of SARS-CoV Urbani / Binding of serum 37 to linear peptides of protein X5 of SARS-CoV Urbani / Binding of serum 37 to looped/cyclic peptides of protein X5 of SARS-CoV Urbani / Binding of serum 6 to linear peptides of protein N of SARS-CoV Urbani / Binding of serum 37 to linear peptides of protein N of SARS-CoV Urbani / Binding of serum 6 to linear peptide (PEPSCAN-ELISA) / Binding of serum 1a to looped/cyclic peptides of protein N of SARS-CoV Urbani / Binding of serum 1b to looped/cyclic peptides of protein N of SARS-CoV Urbani / Binding of serum 2 to looped/cyclic peptides of protein N of SARS-CoV Urbani / Binding of serum 6 to looped/cyclic peptides of protein N of SARS-CoV Urbani / Binding of serum 37 to looped/cyclic peptides of protein N of SARS-CoV Urbani / Binding of serum 62 to looped/cyclic peptides of protein N of SARS-CoV Urbani / Binding of serum London to looped/cyclic peptides of protein N of SARS-CoV Urbani / Binding of serum SARS-green to looped/cyclic peptides of protein N of SARS-CoV Urbani: unit not given here
[3] = tested on: control sera (pooled serum of ten healthy LUMC hospital workers; commercial negative donor pooled serum from the Dutch bloodbank); assay type: binding, human; design: Binding of Control serum LUMC to linear peptides / Binding of Control serum Blood-bank to linear peptides / Binding of Control serum LUMC to looped peptides / Binding of Control Serum Blood-Bank to Looped peptides / Binding of Control serum LUMC to linear peptides of the protein M of SARS-CoV Urbani / Binding of Control serum Blood-bank to linear peptides of the protein M of SARS-CoV Urbani / Binding of Control serum LUMC to looped peptides of the protein M of SARS-CoV Urbani / Binding of Control Serum Blood-Bank to Looped peptides of the protein M of SARS-CoV Urbani: unit not given here

Sequence | Binding of a rabbit serum to linear peptides [1] | Binding of a rabbit serum to looped peptides [1] | Binding of serum 1a to linear peptides of protein X1 of SARS-CoV Urbani [2] | Binding of serum 1a to looped/cyclic peptide (PEPSCAN-ELISA) [2] | Binding of serum 1b to linear peptides of protein X1 of SARS-CoV Urbani [2] | Binding of serum 1b to looped/cyclic peptide (PEPSCAN-ELISA) [2] | Binding of serum 2 to linear peptides of protein X1 of SARS-CoV Urbani [2] | Binding of serum 2 to looped/cyclic peptide (PEPSCAN-ELISA) [2] | Binding of serum 6 to linear peptides of protein X1 of SARS-CoV Urbani [2] | Binding of serum 6 to looped/cyclic peptide (PEPSCAN-ELISA) [2] | Binding of serum 37 to linear peptides of protein X1 of SARS-CoV Urbani [2] | Binding of serum 37 to looped/cyclic peptide (PEPSCAN-ELISA) [2] | Binding of serum 62 to looped/cyclic peptide (PEPSCAN-ELISA) [2] | Binding of serum London to looped/cyclic peptide (PEPSCAN-ELISA) [2] | Binding of serum SARS-green to looped/cyclic peptide (PEPSCAN-ELISA) [2] | Binding of serum SARS-yellow to looped/cyclic peptide (PEPSCAN-ELISA) [2] | Binding of Control Serum Blood-Bank to Looped peptides [3] | Binding of Control serum Blood-bank to linear peptides [3] | Binding of Control serum LUMC to linear peptides [3] | Binding of Control serum LUMC to looped peptides [3] | also measured
NPLLYDANYFVCWHT | 0.2 | 0.6 | 0.9 | 0.5 | 0.6 | 0.4 | 0.6 | 0.4 | 0.5 | 0.3 | 0.8 | 0.5 | 0.6 | 0.2 | 0.3 | 0.4 | 0.7 | 0.6 | 0.6 | 0.6 | Binding of serum 62 to linear peptides of protein X1 of SARS-CoV Urbani [2]: 0.7; Binding of serum London to linear peptides of protein X1 of SARS-CoV Urbani [2]: 0.3; Binding of serum SARS-green to linear peptides of protein X1 of SARS-CoV Urbani [2]: 0.4; Binding of serum SARS-yellow to linear peptides of protein X1 of SARS-CoV Urbani [2]: 0.4
TATIPLQASLPFGWL | 0.1 | 0.6 | 0.9 | 0.7 | 0.8 | 0.6 | 0.6 | 0.5 | 0.7 | 0.5 | 0.7 | 0.8 | 0.8 | 0.3 | 0.5 | 0.5 | 0.8 | 1.0 | 0.8 | 0.8 | Binding of serum 62 to linear peptides of protein X1 of SARS-CoV Urbani [2]: 0.7; Binding of serum London to linear peptides of protein X1 of SARS-CoV Urbani [2]: 0.3; Binding of serum SARS-green to linear peptides of protein X1 of SARS-CoV Urbani [2]: 0.5; Binding of serum SARS-yellow to linear peptides of protein X1 of SARS-CoV Urbani [2]: 0.3
WLCWKCKSKNPLLYD | 0.2 | 0.6 |  | 0.8 |  | 0.6 |  | 0.6 |  | 0.6 |  | 0.9 | 0.7 | 0.3 | 0.4 | 0.6 | 0.7 | 0.6 | 0.7 | 0.8 | Recognition of the peptide by sera of SARS-CoV infected individuals, and form (linear, looped/cyclic) in which it is recognized [2]: recognized in linear form
